The values below come from US20080255206A1, “Rxr Agonists and Antagonists, Alone or in Combination with Ppar Ligands, in the Treatment of Metabolic and Cardiovascular Diseases” (priority 2005, published 2008).

pEC50, pIC50: −log10 of the molar value.

One assay deals with T1, RXRγ (Homo sapiens, UniProt P48443).
T1 sequence (P48443 1-463): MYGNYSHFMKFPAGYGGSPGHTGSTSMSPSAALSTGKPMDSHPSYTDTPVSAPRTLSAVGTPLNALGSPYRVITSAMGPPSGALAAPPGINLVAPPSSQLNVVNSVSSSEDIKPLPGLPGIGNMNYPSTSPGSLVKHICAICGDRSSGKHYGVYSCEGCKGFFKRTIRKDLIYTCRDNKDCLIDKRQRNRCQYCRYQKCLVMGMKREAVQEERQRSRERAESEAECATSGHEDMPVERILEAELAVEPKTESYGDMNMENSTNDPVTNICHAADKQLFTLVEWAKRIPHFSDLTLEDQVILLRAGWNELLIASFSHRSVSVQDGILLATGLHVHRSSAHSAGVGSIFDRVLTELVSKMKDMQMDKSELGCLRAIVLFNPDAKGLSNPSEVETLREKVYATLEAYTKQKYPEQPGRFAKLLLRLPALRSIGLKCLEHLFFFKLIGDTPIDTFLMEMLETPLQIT
As to the kind of experiment: Retinoid activation assay, RXRγ (Schneider SL-3 cells, luciferase reporter). The class given is cell-based. The settings on record: read-out: Activation EC50 RXR γ. On the procedure:
Full length RXR cDNA is used for transfection. As reporter system, the luciferase gene is used in a construct with three copies of a RXR response element from rat CRBP gene, (formerly RARE from betaRAR gene), fused to alcoholdehydrogenase gene promoter in the plasmid pGL2-basic. Schneider SL-3 cells from Drosophila are transiently transfected 3-4 h before the experiment by the Ca-phosphate-DNA coprecipitation method. […] At the end of the incubation, the cell supernatants are assayed for luciferase activity. Results are given as EC50 (nM), the concentration leading to half-maximal activation.

The target in another assay is T2, RXRα Homodimer (Homo sapiens, UniProt P19793).
T2 construct: expressed in transfected cells; host or cells: mammalian cells (BHK21, CV1, etc)
T2 sequence (P19793 1-462): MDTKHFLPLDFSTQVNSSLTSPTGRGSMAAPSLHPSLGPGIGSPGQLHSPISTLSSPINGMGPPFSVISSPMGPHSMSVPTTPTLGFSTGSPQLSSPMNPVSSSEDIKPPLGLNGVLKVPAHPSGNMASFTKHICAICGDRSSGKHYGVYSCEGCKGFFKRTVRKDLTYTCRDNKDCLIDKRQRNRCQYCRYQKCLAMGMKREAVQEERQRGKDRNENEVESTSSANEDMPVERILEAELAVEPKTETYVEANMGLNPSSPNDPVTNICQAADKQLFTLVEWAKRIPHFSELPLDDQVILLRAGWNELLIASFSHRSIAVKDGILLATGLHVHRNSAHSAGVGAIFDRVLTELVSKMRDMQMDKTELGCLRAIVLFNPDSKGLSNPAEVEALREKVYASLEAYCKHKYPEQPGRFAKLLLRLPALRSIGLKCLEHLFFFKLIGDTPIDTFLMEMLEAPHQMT
As to the kind of experiment: RXRα homodimer activation (transactivation) assay. Format: cell-based. From the text: Nuclear hormone receptor (NHR) ligand dependent transcriptional transactivation assay.
This secondary in vitro functional assay to characterize hits from the primary ligand binding screens is a GAL4-LBD transactivation assay. The Gal4-LBD protein consists of an in frame fusion of the transcription factor galactose 4 DNA binding domain from S.cerevisiae with the ligand binding domain (LBD) of a particular NHR. Briefly, a plasmid construct expressing the recombinant chimeric receptor is co-transfected into mammalian cells (BHK21, CV1, etc) with a luciferase reporter plasmid containing several copies in tandem of the GAL4 binding sites (promoter recognition elements) upstream from the minimal promoter driving the luciferase gene. The transfected cells are treated with compounds for 12-24 hours, lysates are produced and assayed for luciferase activity and normalized to internal standards such as GH, growth hormone or SEAP, secreted alkaline phosphatase. Ligand binding stabilizes the LBD conformation that recruits endogenous co-factors that mediate eventually the increased transcriptional activity of the luciferase reporter gene. By comparing the activation profile of a reference ligand or a natural ligand, the EC50 values for agonistic activity of a particular ligand can be measured. The extent of activation that can be measured is indicative of a partial, respectively full agonistic activity of a ligand. […]

In a further assay the target is T3, RARα (Homo sapiens, UniProt P10276).
T3 sequence (P10276 183-417 limits assumed): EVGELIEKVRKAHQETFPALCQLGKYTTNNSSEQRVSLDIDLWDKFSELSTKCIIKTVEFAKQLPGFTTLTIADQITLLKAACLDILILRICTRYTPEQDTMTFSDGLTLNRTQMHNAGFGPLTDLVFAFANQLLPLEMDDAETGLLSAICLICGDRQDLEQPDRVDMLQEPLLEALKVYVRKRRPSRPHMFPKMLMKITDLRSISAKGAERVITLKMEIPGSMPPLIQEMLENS
Description: Retinoid binding assay, RARα. Also noted: The DEF domains of RAR's and the full length RXR's, expressed in E.coli; made in house; host or cells: E. coli. As to conditions: read-out: Binding Affinity IC50 RAR α. From the text:
The DEF domains of RAR's and the full length RXR's, expressed in E.coli, are used to measure competitive retinoid binding. […] 9-cis retinoic acid (for RXR's), respectively. […] Separation of bound from free radioactivity is achieved by charcoal/dextran (RAR's) or by desalting columns (RXR's). […] Retinoid Activation Assays

For the next assay, the target named is T4, RARγ (Homo sapiens, UniProt P13631).
T4 sequence (P13631 185-454 limits assumed): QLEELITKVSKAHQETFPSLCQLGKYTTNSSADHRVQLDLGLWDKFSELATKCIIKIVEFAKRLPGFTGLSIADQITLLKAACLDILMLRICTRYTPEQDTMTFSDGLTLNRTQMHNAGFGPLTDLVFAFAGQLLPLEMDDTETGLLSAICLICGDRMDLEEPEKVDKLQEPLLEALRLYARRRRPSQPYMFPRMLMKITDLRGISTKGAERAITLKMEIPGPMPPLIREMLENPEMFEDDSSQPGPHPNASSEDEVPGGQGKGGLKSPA
As to the kind of experiment: Retinoid activation assay, RARγ (COS-1 cells, SeAP reporter). Format: cell-based. As to conditions: read-out: Activation EC50 RAR γ. On the procedure:
Chimeric RAR cDNAs are used for transfection which contain the DNA binding region of the estrogen receptor. As reporter system, the SeAp (secreted alkaline phosphatase) gene under control of the vitellogenin estrogen response element fused to the herpes simplex thymidinkinase promoter (vit-TK-SeAP) is used. The galactosidase expression vector pCH110 serves to correct for variation in transfection efficiency. […] At the end of the incubation, the cell supernatants are assayed for SeAP activity. Results are given as EC50 (nM), the concentration leading to half-maximal activation.

Take `CC1=C(/C=C/C2=C(/C=C/C(C)=C/C(=O)O)CCCCC2)C(C)(C)CCC1` [Compound 1, (2E,4E)-3-methyl-5-[2-[(E)-2-(2,6,6-trimethyl-1-cyclohexen-1-yl)ethenyl]-1-cyclohepten-1-yl]-2,4-pentadienoic acid]: the pEC50 at RXRγ is ≤ 5.00; on RXRα Homodimer it was 8.85. In addition, the pIC50 on RARα was < 5.00.
As to `CC(/C=C/C1=C(c2ccc3c(c2)C(C)(C)CCC3(C)C)CCCC1)=C\C(=O)O` [Compound 6, (2E,4E)-3-Methyl-5-[2-(5,5,8,8-tetramethyl-5,6,7,8-tetrahydro-naphthalen-2-yl)-cyclohex-1-enyl]-penta-2,4-dienoic acid], the pEC50 at RXRγ was 6.85; on RXRα Homodimer, 7.72. Besides, at RARα, the negative-log IC50 (pIC50) was < 5.00.
In the same order, the values of `CCCCOc1c(\C(C)=C/C=C/C(C)=C/C(=O)O)cc(C(C)(C)C)cc1C(C)(C)C` [Compound 15, (2E,4E,6Z)-7-[2-butoxy-3,5-bis(1,1-dimethylethyl)phenyl]-3-methyl-2,4,6-octatrienoic acid] are ≤ 5.00, < 5.00 and 5.38.
As to `C/C(=C/C=C/C(C)=C/C(=O)O)c1cc2c(cc1C)C(C)(C)CCCC2` [Compound 13, (2E,4E,6Z)-3-Methyl-7-(3,5,5,-trimethyl-6,7,8,9-tetrahydro-5H-benzocyclohepten-2-yl)-octa-2,4,6-trienoic acid], the values for the pEC50 on RXRγ and on RXRα Homodimer were 6.40 and 8.82, respectively. Further, at RARα, the negative-log IC50 (pIC50) is 5.19.
As to `CC(/C=C/c1ccccc1-c1ccc2c(c1)C(C)(C)CCC2(C)C)=C\C(=O)O` [Compound 7, (2E,4E)-3-methyl-5-[2-(5,5,8,8-tetramethyl-5,6,7,8-tetrahydro-naphthalen-2-yl)-phenyl]-penta-2,4-dienoic acid], the results for the negative-log EC50 (pEC50) on RXRγ and on RXRα Homodimer were 6.40 and 8.22, respectively. The pIC50 on RARα is < 5.00.
In the case of `CC(/C=C/C1=C(c2ccc3c(c2)C(C)(C)CCC3(C)C)CCC1)=C\C(=O)O` [Compound 12, (2E,4E)-3-Methyl-5-[2-(5,5,8,8-tetramethyl-5,6,7,8-tetrahydro-naphthalen-2-yl)-cyclopent-1-enyl]-penta-2,4-dienoic acid], the values for the pEC50 at RARγ, on RXRγ and on RXRα Homodimer were 6.70, 6.82 and 8.05, respectively. Further, on RARα, the negative-log IC50 (pIC50) is 5.46.
As to `CC1=C(/C=C/C2=C(/C=C/C(C)=C/C(=O)O)CCC2)C(C)(C)CCC1` [Compound 14, (2E,4E)-3-Methyl-5-[2-[(E)-2-(2,6,6-trimethyl-1-cyclohexen-1-yl)ethenyl]-1-cyclopenten-1-yl]-2,4-pentadienoic acid], the results for the pEC50 on RARγ, on RXRγ and at RXRα Homodimer were 6.82, 7.30 and 8.22, respectively.
Regarding `CCOc1c([C@@H]2C[C@@H]2/C=C/C(C)=C/C(=O)O)cc(C(C)(C)C)cc1C(C)(C)C` (racemic) [Compound 17, (2E,4E)-(1RS,2RS)-5-[2-(3,5-Di-tert-butyl-2-ethoxy-phenyl)-cyclopropyl]-3-methyl-penta-2,4-dienoic acid], the pEC50 at RXRγ is ≤ 5.00; on RXRα Homodimer, < 5.00. Moreover, at RARα, the negative-log IC50 (pIC50) is < 5.00.
Take `CCC1(CC)CCC(C)(C)c2cc(\C(C)=C/C=C/C(C)=C/C(=O)O)ccc21` [Compound 24, (2E,4E,6Z)-7-(5,5-Diethyl-8,8-dimethyl-5,6,7,8-tetrahydro-naphthalen-2-yl)-3-methyl-octa-2,4,6-trienoic acid]: the negative-log EC50 (pEC50) at RARγ is 7.79; at RXRγ, ≤ 5.00; at RXRα Homodimer it was < 5.00. The pIC50 at RARα was 7.34.
On to `CC(/C=C/c1sccc1-c1ccc2c(c1)C(C)(C)CCC2(C)C)=C\C(=O)O` [Compound 9], for which the negative-log EC50 (pEC50) is 6.05 on RARγ, 7.05 at RXRγ and 8.60 at RXRα Homodimer. For the same molecule, the pIC50 at RARα is 5.47.
Consider `CC1=C(C#CC2=C(/C=C/C(C)=C/C(=O)O)CCCCC2)C(C)(C)CCC1` [Compound 18], for which the figures for the pEC50 at RXRγ and on RXRα Homodimer were ≤ 5.00 and < 5.00, respectively. Further, the negative logarithm of the IC50 (pIC50) on RARα is < 5.00.
Take `CCOc1c(\C(C)=C/C=C/C(C)=C/C(=O)O)cc(C(C)(C)C)cc1C(C)(C)C` [Compound 21, (2E,4E,6Z)-7-[3,5-Bis(1,1-dimethylethyl)-2-ethoxyphenyl]-3-methyl-2,4,6-octatrienoic acid/ethyl ester]: the pEC50 on RXRγ was ≤ 5.00; at RXRα Homodimer, < 5.00. For the same molecule, the pIC50 on RARα is < 5.00.
Turning to `CC(/C=C/[C@@H]1C[C@@H]1c1ccc2c(c1)C(C)(C)CCC2(C)C)=C\C(=O)O` (racemic) [Compound 4, (2E,4E)-3-methyl-5-[(1RS,2RS)-2-(5,5,8,8-tetramethyl-5,6,7,8-tetrahydro-naphthalen-2-yl)-cyclopropyl]-penta-2,4-dienoic acid], the pEC50 is 6.00 on RARγ, 7.30 on RXRγ and 8.46 at RXRα Homodimer. In addition, the pIC50 on RARα was < 5.00.
For `CC1=C(/C=C/c2sccc2/C=C/C(C)=C/C(=O)O)C(C)(C)CCC1` [Compound 5, (2E,4E)-3-Methyl-5-[2-[(E)-2-(2,6,6-trimethyl-1-cyclohexen-1-yl)ethenyl]-3-thienyl]-2,4-pentadienoic acid], the pEC50 is 6.77 at RARγ, ≤ 5.00 on RXRγ and 9.10 at RXRα Homodimer. Besides, the pIC50 at RARα was 5.80.
`CCCCOc1c([C@@H]2C[C@@H]2/C=C/C(C)=C/C(=O)O)cc(C(C)(C)C)cc1C(C)(C)C` (racemic) [Compound 16, (2E,4E)-(1RS,2RS)-5-[2-(3,5-Di-tert-butyl-2-butoxy-phenyl)-cyclopropyl]-3-methyl-penta-2,4-dienoic acid]: the pEC50 at RXRγ was ≤ 5.00; on RXRα Homodimer it was < 5.00. Also, the pIC50 at RARα is < 5.00.
